From patent US8530667B2, “Herbicides” (Syngenta Limited, priority 2007, dated 2013)

What was measured:
Format in all cases: in vivo
[1] = system: Alopecurus myosuroides (ALOMY); assay: Example A pre-emergence herbicidal activity, glasshouse pot test; conditions: evaluated 19 or 20 days later, read-out: Pre-Emergence Activity ALOMY (100=total damage to plant; 0=no damage to plant); for pest or weed control at 250 g/ha: Rate 250 g/ha; for pest or weed control at 500 g/ha: Rate 500 g/ha
Procedure: (§1) Seeds of a variety of test species were sown in standard soil in pots. After cultivation for one day (pre-emergence) or after 10 days cultivation (post-emergence) under controlled conditions in a glasshouse, the plants were sprayed with an aqueous spray solution derived from the formulation of the technical active ingredient in 0.6 ml acetone and 45 ml formulation solution containing 10.6% Emulsogen EL (Registry number 61791-12-6), 42.2% N-methylpyrrolidone, 42.2% dipropylene glycol monomethyl ether (Registry number 34590-94-8) and 0.2% X-77 (Registry number 11097-66-8). The test plants were then grown in a greenhouse under optimum conditions until, 14 or 15 days later for post-emergence and 19 or 20 days for pre-emergence, the test was evaluated (100=total damage to plant; 0=no damage to plant). Alopecurus myosuroides (ALOMY), Avena fatua (AVEFA), Lolium perenne (LOLPE), Setaria faberi (SETFA), Digitaria sanguinalis (DIGSA), Echinochloa crus-galli (ECHCG)

[2] = system: Digitaria sanguinalis (DIGSA); assay: as above; conditions: evaluated 19 or 20 days later, read-out: Pre-Emergence Activity DIGSA (100=total damage to plant; 0=no damage to plant); for pest or weed control at 250 g/ha: Rate 250 g/ha; for pest or weed control at 500 g/ha: Rate 500 g/ha
Procedure: as §1

[3] = system: Lolium perenne (LOLPE); assay: as above; conditions: evaluated 19 or 20 days later, read-out: Pre-Emergence Activity LOLPE (100=total damage to plant; 0=no damage to plant); for pest or weed control at 250 g/ha: Rate 250 g/ha; for pest or weed control at 500 g/ha: Rate 500 g/ha
Procedure: as §1

[4] = system: Avena fatua (AVEFA); assay: as above; conditions: evaluated 19 or 20 days later, read-out: Pre-Emergence Activity AVEFA (100=total damage to plant; 0=no damage to plant); for pest or weed control at 250 g/ha: Rate 250 g/ha; for pest or weed control at 500 g/ha: Rate 500 g/ha
Procedure: as §1

[5] = system: Setaria faberi (SETFA); assay: as above; conditions: evaluated 19 or 20 days later, read-out: Pre-Emergence Activity SETFA (100=total damage to plant; 0=no damage to plant); for pest or weed control at 250 g/ha: Rate 250 g/ha; for pest or weed control at 500 g/ha: Rate 500 g/ha
Procedure: as §1

[6] = system: Echinochloa crus-galli (ECHCG); assay: as above; conditions: evaluated 19 or 20 days later, read-out: Pre-Emergence Activity ECHCG (100=total damage to plant; 0=no damage to plant); for pest or weed control at 250 g/ha: Rate 250 g/ha; for pest or weed control at 500 g/ha: Rate 500 g/ha
Procedure: as §1

[7] = system: Alopecurus myosuroides (ALOMY); assay: Example A post-emergence herbicidal activity, glasshouse pot test; conditions: Rate 125 g/ha, evaluated 14 or 15 days later, read-out: Post-Emergence Activity ALOMY (100=total damage to plant; 0=no damage to plant)
Procedure: as §1

[8] = system: Digitaria sanguinalis (DIGSA); assay: as above; conditions: Rate 125 g/ha, evaluated 14 or 15 days later, read-out: Post-Emergence Activity DIGSA (100=total damage to plant; 0=no damage to plant)
Procedure: as §1

[9] = system: Lolium perenne (LOLPE); assay: as above; conditions: Rate 125 g/ha, evaluated 14 or 15 days later, read-out: Post-Emergence Activity LOLPE (100=total damage to plant; 0=no damage to plant)
Procedure: as §1

[10] = system: Avena fatua (AVEFA); assay: as above; conditions: Rate 125 g/ha, evaluated 14 or 15 days later, read-out: Post-Emergence Activity AVEFA (100=total damage to plant; 0=no damage to plant)
Procedure: as §1

[11] = system: Setaria faberi (SETFA); assay: as above; conditions: Rate 125 g/ha, evaluated 14 or 15 days later, read-out: Post-Emergence Activity SETFA (100=total damage to plant; 0=no damage to plant)
Procedure: as §1

[12] = system: Echinochloa crus-galli (ECHCG); assay: as above; conditions: Rate 125 g/ha, evaluated 14 or 15 days later, read-out: Post-Emergence Activity ECHCG (100=total damage to plant; 0=no damage to plant)
Procedure: as §1

[13] = system: Alopecurus myosuroides (ALOMY); assay: Example B post-emergence herbicidal activity, glasshouse pot test; conditions: 312 h, rate 1000 g/ha, evaluated after 13 days, read-out: Post-emergence activity ALOMY (100=total damage to plant; 0=no damage to plant)
Procedure, shortened: (§2)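 Applied pre-emergence (1 day after sowing) or post-emergence (8 days after sowing) in acetone/water 50:50 containing 0.5% Tween 20; pots were then held in a glasshouse and watered twice daily. Assessment: 0–100 damage rating at 13 days.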

[14] = system: Amaranthus retoflexus (AMARE); assay: as above; conditions: Amaranthus retroflexus, 312 h, rate 1000 g/ha, evaluated after 13 days, read-out: Post-emergence activity AMARE (100=total damage to plant; 0=no damage to plant)
Procedure, shortened: as §2

[15] = system: Avena fatua (AVEFA); assay: as above; conditions: 312 h, rate 1000 g/ha, evaluated after 13 days, read-out: Post-emergence activity AVEFA (100=total damage to plant; 0=no damage to plant)
Procedure, shortened: as §2

[16] = system: Setaria faberi (SETFA); assay: as above; conditions: 312 h, rate 1000 g/ha, evaluated after 13 days, read-out: Post-emergence activity SETFA (100=total damage to plant; 0=no damage to plant)
Procedure, shortened: as §2

[17] = system: Echinochloa crus-galli (ECHCG); assay: as above; conditions: 312 h, rate 1000 g/ha, evaluated after 13 days, read-out: Post-emergence activity ECHCG (100=total damage to plant; 0=no damage to plant)
Procedure, shortened: as §2

CCc1csc(CC)c1C1C(=O)[C@@H]2[C@H](C1=O)[C@H]1CC[C@@H]2O1 (some centres unmarked) [Compound T15]
pest or weed control at 250 g/ha [1]: 70%
pest or weed control at 250 g/ha [2]: 30%
pest or weed control at 250 g/ha [3]: 10%
pest or weed control at 250 g/ha [4]: 10%
pest or weed control at 250 g/ha [5]: 20%
pest or weed control at 250 g/ha [6]: 90%
pest or weed control at 125 g/ha [7]: 50%
pest or weed control at 125 g/ha [8]: 40%
pest or weed control at 125 g/ha [9]: 40%
pest or weed control at 125 g/ha [10]: 40%
pest or weed control at 125 g/ha [11]: 70%
pest or weed control at 125 g/ha [12]: 90%

Cc1nc(-c2cc(C3C(=O)[C@@H]4[C@H](C3=O)[C@H]3CC[C@@H]4O3)c(C)s2)cs1 (some centres unmarked) [Compound T7]
pest or weed control at 500 g/ha [1]: 10%
pest or weed control at 500 g/ha [2]: 20%
pest or weed control at 500 g/ha [3]: 10%
pest or weed control at 500 g/ha [4]: 10%
pest or weed control at 500 g/ha [5]: 0%
pest or weed control at 500 g/ha [6]: 0%
pest or weed control at 125 g/ha [7]: 0%
pest or weed control at 125 g/ha [8]: 0%
pest or weed control at 125 g/ha [9]: 0%
pest or weed control at 125 g/ha [10]: 0%
pest or weed control at 125 g/ha [11]: 0%
pest or weed control at 125 g/ha [12]: 50%

Cc1sc(-c2ccc(Cl)cc2)nc1C1C(=O)[C@@H]2[C@H](C1=O)[C@H]1CC[C@@H]2O1 (some centres unmarked) [Compound T22]
pest or weed control at 250 g/ha [1]: 100%
pest or weed control at 250 g/ha [2]: 100%
pest or weed control at 250 g/ha [3]: 100%
pest or weed control at 250 g/ha [4]: 100%
pest or weed control at 250 g/ha [5]: 100%
pest or weed control at 250 g/ha [6]: 100%
pest or weed control at 125 g/ha [7]: 70%
pest or weed control at 125 g/ha [8]: 100%
pest or weed control at 125 g/ha [9]: 20%
pest or weed control at 125 g/ha [10]: 70%
pest or weed control at 125 g/ha [11]: 60%
pest or weed control at 125 g/ha [12]: 100%

Cc1sc(Br)cc1C1C(=O)[C@@H]2[C@H](C1=O)[C@H]1CC[C@@H]2O1 (some centres unmarked) [Compound T5]
pest or weed control at 500 g/ha [1]: 0%
pest or weed control at 500 g/ha [2]: 0%
pest or weed control at 500 g/ha [3]: 0%
pest or weed control at 500 g/ha [4]: 20%
pest or weed control at 500 g/ha [5]: 0%
pest or weed control at 500 g/ha [6]: 0%
pest or weed control at 125 g/ha [7]: 10%
pest or weed control at 125 g/ha [8]: 30%
pest or weed control at 125 g/ha [9]: 0%
pest or weed control at 125 g/ha [10]: 10%
pest or weed control at 125 g/ha [11]: 10%
pest or weed control at 125 g/ha [12]: 0%

Cc1sc(-c2ccc(Br)cc2)nc1C1C(=O)[C@@H]2[C@H](C1=O)[C@H]1CC[C@@H]2O1 (some centres unmarked) [Compound T28]
pest or weed control at 250 g/ha [1]: 100%
pest or weed control at 250 g/ha [2]: 100%
pest or weed control at 250 g/ha [3]: 100%
pest or weed control at 250 g/ha [4]: 100%
pest or weed control at 250 g/ha [5]: 100%
pest or weed control at 250 g/ha [6]: 100%
pest or weed control at 125 g/ha [7]: 70%
pest or weed control at 125 g/ha [8]: 100%
pest or weed control at 125 g/ha [9]: 50%
pest or weed control at 125 g/ha [10]: 70%
pest or weed control at 125 g/ha [11]: 80%
pest or weed control at 125 g/ha [12]: 100%

CCc1sc(-c2ccc(Cl)cc2)nc1C1C(=O)[C@@H]2[C@H](C1=O)[C@@]1(C)CC[C@]2(C)O1 (some centres unmarked) [Compound T27]
pest or weed control at 250 g/ha [1]: 70%
pest or weed control at 250 g/ha [2]: 100%
pest or weed control at 250 g/ha [3]: 90%
pest or weed control at 250 g/ha [4]: 60%
pest or weed control at 250 g/ha [5]: 100%
pest or weed control at 250 g/ha [6]: 70%
pest or weed control at 125 g/ha [7]: 80%
pest or weed control at 125 g/ha [8]: 100%
pest or weed control at 125 g/ha [9]: 40%
pest or weed control at 125 g/ha [10]: 90%
pest or weed control at 125 g/ha [11]: 80%
pest or weed control at 125 g/ha [12]: 100%

CCc1sc(-c2ccc(Cl)cc2)nc1C1C(=O)[C@@H]2[C@H](C1=O)[C@H]1CC[C@@H]2O1 (some centres unmarked) [Compound T23, 4-[2-(4-chloro-phenyl)-5-ethyl-thiazol-4-yl]-10-oxa-tricyclo[5.2.1.0*2,6*]decane-3,5-dione]
pest or weed control at 500 g/ha [1]: 100%
pest or weed control at 500 g/ha [2]: 100%
pest or weed control at 500 g/ha [3]: 90%
pest or weed control at 500 g/ha [4]: 90%
pest or weed control at 500 g/ha [5]: 100%
pest or weed control at 500 g/ha [6]: 100%
pest or weed control at 125 g/ha [7]: 100%
pest or weed control at 125 g/ha [8]: 100%
pest or weed control at 125 g/ha [9]: 100%
pest or weed control at 125 g/ha [10]: 100%
pest or weed control at 125 g/ha [11]: 100%
pest or weed control at 125 g/ha [12]: 100%

COc1ccc(-c2nc(C3C(=O)[C@@H]4[C@H](C3=O)[C@H]3CC[C@@H]4O3)c(C)s2)cc1 (some centres unmarked) [Compound T21]
pest or weed control at 250 g/ha [1]: 90%
pest or weed control at 250 g/ha [2]: 100%
pest or weed control at 250 g/ha [3]: 90%
pest or weed control at 250 g/ha [4]: 70%
pest or weed control at 250 g/ha [5]: 100%
pest or weed control at 250 g/ha [6]: 100%
pest or weed control at 125 g/ha [7]: 50%
pest or weed control at 125 g/ha [8]: 80%
pest or weed control at 125 g/ha [9]: 40%
pest or weed control at 125 g/ha [10]: 20%
pest or weed control at 125 g/ha [11]: 80%
pest or weed control at 125 g/ha [12]: 100%
pest or weed control at 1000 g/ha [13]: 100%
pest or weed control at 1000 g/ha [14]: 0%
pest or weed control at 1000 g/ha [15]: 100%
pest or weed control at 1000 g/ha [16]: 100%
pest or weed control at 1000 g/ha [17]: 100%
